These results are taken from patent publication US10376598B2, “Targeted therapeutics” (Madrigal Pharmaceuticals, Inc., priority 2013, dated 2019).

For data set [1] the following is noted: in vivo; cited from earlier work.
The test system of data set [2] is HER2. In words: HER2 degradation in BT-474 cells (Method 1, Western blot). It is filed as cell-based, human. The settings on record: 0.5 μM, overnight. The method, then: […]. The resulting supernatant used as the cytosol fractions is dissolved with sample buffer for SDS-PAGE and run on a SDS-PAGE gel, blotted onto a nitrocellulose membrane by using semi-dry transfer. Non-specific binding to nitrocellulose is blocked with 5% skim milk in TBS with 0.5% Tween at room temperature for 1 hour, then probed with anti-HER2/ErB2 mAb (rabbit IgG, #2242, Cell Signaling) and anti-Tubulin (T9026, Sigma) as housekeeping control protein. HRP-conjugated goat anti-rabbit IgG (H+L) and HRP-conjugated horse anti-mouse IgG (H+L) are used as secondary Ab (#7074, #7076, Cell Signaling) and LumiGLO reagent, 20× Peroxide (#7003, Cell Signaling) is used for visualization. The Hsp90 client protein HER2 is degraded when cells are treated with Hsp90-targeting moieties or SDC-TRAPs of the invention.
(A western blot detects proteins with antibodies after separation by electrophoresis.)

The target of the next data set is T1, JAK2V617F (Homo sapiens, UniProt O60674, V617F).
T1 construct: host or cells: Ba/F3
T1 sequence (O60674 whole entry V617F): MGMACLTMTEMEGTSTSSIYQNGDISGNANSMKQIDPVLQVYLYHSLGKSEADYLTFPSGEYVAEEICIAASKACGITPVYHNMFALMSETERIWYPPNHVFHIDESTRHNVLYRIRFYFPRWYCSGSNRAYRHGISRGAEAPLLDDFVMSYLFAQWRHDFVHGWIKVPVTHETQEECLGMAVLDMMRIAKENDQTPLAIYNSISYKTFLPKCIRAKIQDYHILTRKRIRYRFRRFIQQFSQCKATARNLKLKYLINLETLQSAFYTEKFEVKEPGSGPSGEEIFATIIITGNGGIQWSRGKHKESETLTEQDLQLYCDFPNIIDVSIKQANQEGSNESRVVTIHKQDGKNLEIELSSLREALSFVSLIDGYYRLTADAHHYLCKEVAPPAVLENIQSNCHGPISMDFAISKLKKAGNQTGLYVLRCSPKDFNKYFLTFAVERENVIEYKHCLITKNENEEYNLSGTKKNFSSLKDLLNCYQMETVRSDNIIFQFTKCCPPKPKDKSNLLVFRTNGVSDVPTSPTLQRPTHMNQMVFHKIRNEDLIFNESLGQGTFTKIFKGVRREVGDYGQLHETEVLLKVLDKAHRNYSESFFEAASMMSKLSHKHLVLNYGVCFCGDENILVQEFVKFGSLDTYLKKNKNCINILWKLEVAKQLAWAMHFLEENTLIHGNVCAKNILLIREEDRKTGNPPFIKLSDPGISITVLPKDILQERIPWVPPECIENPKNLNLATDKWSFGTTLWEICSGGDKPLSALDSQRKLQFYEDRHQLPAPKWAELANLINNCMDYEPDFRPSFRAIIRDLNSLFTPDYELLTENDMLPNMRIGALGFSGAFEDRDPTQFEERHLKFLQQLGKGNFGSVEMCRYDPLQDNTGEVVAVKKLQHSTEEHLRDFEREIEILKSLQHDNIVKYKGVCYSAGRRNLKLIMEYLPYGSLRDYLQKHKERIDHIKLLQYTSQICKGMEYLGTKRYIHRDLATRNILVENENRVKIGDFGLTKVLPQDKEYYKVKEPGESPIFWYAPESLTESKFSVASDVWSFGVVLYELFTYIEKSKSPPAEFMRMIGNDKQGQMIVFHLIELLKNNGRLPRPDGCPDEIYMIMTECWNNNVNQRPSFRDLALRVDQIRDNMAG
The settings on record: Ba/F3 cells; read-out: IC50 JAK2V617F-driven signaling; cited from earlier work.

The target in data set [3] is T2, wild-type JAK2 (Homo sapiens, UniProt O60674). The settings on record: read-out: IC50 interleukin-3-stimulated wild-type JAK2-mediated signaling; cited from earlier work.
T2 sequence (O60674 whole entry, species assumed): as the sequence (O60674 whole entry V617F) above, with F617V counted along it
In data set [4] the target is T2, wild-type JAK2. The settings on record: read-out: IC50 interleukin-3-stimulated wild-type JAK2-mediated cell proliferation; cited from earlier work.
In data set [5] the test system is Ba/F3-JAK2V617F-GFP ascitic tumor cells. The settings on record: cited from earlier work.
The test system of data set [6] is Ba/F3-JAK2V617F-GFP tumor burden. The conditions noted are these: cited from earlier work.
Data set [7] deals with FGF-over VEGF-mediated target signaling. The settings on record: in mice; cited from earlier work.
The next data set concerns SW1990. The conditions noted are these: read-out: IC50 cell proliferation; cited from earlier work.
In data set [8] the test system is SW1990 human pancreas orthotopic tumor. The conditions noted are these: in vivo; cited from earlier work.
The target of a further data set is p38α MAPK (Homo sapiens, UniProt Q16539). The conditions noted are these: cited from earlier work.
p38α MAPK, sequence (Q16539 whole entry, canonical isoform): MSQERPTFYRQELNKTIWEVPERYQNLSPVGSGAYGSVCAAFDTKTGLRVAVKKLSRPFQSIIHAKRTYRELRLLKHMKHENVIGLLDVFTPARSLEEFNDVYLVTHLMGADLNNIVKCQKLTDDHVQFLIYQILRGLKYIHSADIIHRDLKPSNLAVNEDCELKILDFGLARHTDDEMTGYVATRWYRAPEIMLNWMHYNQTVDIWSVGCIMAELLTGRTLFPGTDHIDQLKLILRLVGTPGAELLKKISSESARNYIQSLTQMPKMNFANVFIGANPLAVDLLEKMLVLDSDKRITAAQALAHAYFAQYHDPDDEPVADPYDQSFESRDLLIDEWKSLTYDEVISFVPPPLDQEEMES
Another data set concerns the target β isoform of p38 MAPK (Homo sapiens, UniProt Q15759). The conditions noted are these: in vitro; cited from earlier work.
The test system of data set [9] is phosphorylation of MK2 (Thr334). The conditions noted are these: TNFα-stimulated HeLa cells; cited from earlier work.
The test system is the same in data set [10]. The settings on record: anisomycin-induced mouse RAW264.7 macrophages; cited from earlier work.
The subject of the next data set is TNFα secretion. The settings on record: LPS/IFNγ-stimulated macrophages; cited from earlier work.
The test system of the next data set is phospho-MK2. The settings on record: cited from earlier work.
A short description of data set [11]: Tissue distribution of ganetespib in female CD-1 nu/nu mice bearing RERF human NSCLC xenografts. The format is in vivo. An excerpt: Tissue Distribution of Ganetespib in Female CD-1 Nu/Nu Mice Bearing RERF Human NSCLC Xenografts
To confirm the distribution of ganetespib in blood, livers, kidneys, brains, hearts, lungs and tumors after IV administration of ganetespib to female CD-1 nu/nu mice bearing RERF human NSCLC xenografts, and to examine metabolic profiles of ganetespib in plasma, red blood cells, and above tissues.
Animals: female CD-1 nu/nu mice bearing RERF human NSCLC xenografts (N=3/group)
Formulation: 10% DMSO, 18% Cremophor RH40, 3.6% dextrose solution (DRD)
Bleeding time points: 5 min, 6, 24 hr
Collected tissues: blood (plasma and red blood cells (RBC)), liver, kidneys, brain, heart, lung, tumor
Protein precipitation: 50 μL of 10 times diluted plasma or RBC+150 μL ACN (10 mM NH4OAc), vortexed and centrifuged at 10000 rpm for 8 min; 150 μL supernatant+150 μL water (10 mM NH4OAc)
Protein precipitation: 100 μL homogenized tissue (1:3 tissue: PBS buffer)+100 μL ACN (10 mM NH4OAc), vortexed and centrifuged at 10000 rpm for 8 min
Column: Agilent Zorbax Eclipse XDB-C18, 4.6×150 mm, 5 μm
Mobile phase: A: water containing 10 mM NH4OAc; B: 95% ACN containing 10 mM NH4OAc
Gradient: 95/5 A/B to 5/95 A/B in 10 min, total run time 15 min
Column: Phenomenex Synergi, 2.1×50 mm, 4 μm
Mobile phase: A: water containing 0.1% HCOOH; B: ACN containing 0.1% HCOOH
Gradient: 60/40 A/B to 5/95 A/B in 0.5 min, total run time 4 min

For data set [12], the system named is HER2. In words: in vitro HER2 assays. The format is cell-based. An excerpt:
This example illustrates how a HER2 degradation assay may be used as a test to determine and select Hsp90-targeting moieties suitable for use in SDC-TRAPs of the invention, and further illustrates the ability of SDC-TRAPs to target cells preferentially expressing Hsp90. Such a test may further be used to determine the Hsp90 binding ability of SDC-TRAPs of the invention, as well as through competitive binding assays and cell-based Hsp90 client protein degradation assays known in the art.
BT-474 cells are plated in the interior 60 wells of a 96 well black clear bottom plate (20,000 cells/well) in DMEM medium, with DMEM media in the surrounding 36 wells, and incubated at 37° C. with 5% CO2 overnight. On the second day, concentration response curve source plates are produced (10 point, 3-fold dilution of compounds in DMSO) followed by a 1:30 dilution in an intermediate dilution plate containing DMEM. Compound is transferred from the intermediate plate to the cell plate at a dilution of 1:10. The cells are then incubated at 37° C. with 5% CO2 for 24 hours.
Cells are then fixed in 4% phosphate-buffered paraformaldehyde for 30 minutes at room temperature and then permeabilized by washing five times with 0.1% Triton X-100 in PBS for 5 minutes at room temperature on a shaker. […] The raw data is normalized to DRAQS and the HER2 EC50 is calculated using XLfit™. […]

Like-named read-outs stand apart in the source and are kept apart here.

β isoform of p38 MAPK, sequence (Q15759 whole entry, canonical isoform): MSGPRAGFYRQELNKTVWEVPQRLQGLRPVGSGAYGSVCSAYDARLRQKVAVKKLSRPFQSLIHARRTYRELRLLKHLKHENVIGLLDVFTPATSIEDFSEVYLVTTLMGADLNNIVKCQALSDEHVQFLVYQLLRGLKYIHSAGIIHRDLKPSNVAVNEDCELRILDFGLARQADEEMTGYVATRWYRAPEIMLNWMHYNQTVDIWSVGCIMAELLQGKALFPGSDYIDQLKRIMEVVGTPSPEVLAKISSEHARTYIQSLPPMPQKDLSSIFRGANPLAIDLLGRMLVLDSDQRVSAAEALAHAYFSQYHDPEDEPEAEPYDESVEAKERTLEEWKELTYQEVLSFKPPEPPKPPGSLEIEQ

For `CCN1CCN(Cc2ccc(Nc3ncc(F)c(-c4cc(F)c5nc(C)n(C(C)C)c5c4)n3)nc2)CC1.CS(=O)(=O)O` [LY2835219, 2-Pyrimidinamine, N-[5-[(4-ethyl-1-piperazinyl)methyl]-2-pyridinyl]-5-fluoro-4-[4-fluoro-2-methyl-1-(1-methylethyl)-1H-benzimidazol-6-yl]-, methanesulfonate (1:1)], in data set [1], the “percent of dose in brain” value is 0.5-3.9%.

For the molecule `C=CCNC1=C2C[C@@H](C)C[C@H](OC)[C@H](O)[C@@H](C)/C=C(\C)[C@H](OC(N)=O)[C@@H](OC)/C=C\C=C(/C)C(=O)NC(=CC1=O)C2=O` [17-AAG], in the data set on HER2 [2], the “degradation of HER2” value is on record as “partial degradation of HER2”.

On to `Cc1cc(Nc2cc(CN3CCOCC3)c3nc(C)c(Cc4ccc(Cl)cc4F)n3n2)n[nH]1` [LY2784544, 3-(4-Chloro-2-fluorobenzyl)-2-methyl-N-(5-methyl-1H-pyrazol-3-yl)-8-(morpholin-4-ylmethyl)imidazo[1,2-b]pyridazin-6-amine], for which the IC50 is 20 nM at JAK2V617F, 1180 nM at wild-type JAK2 [3] and 1310 nM on wild-type JAK2 [4]. The “TED50 inhibition of STATS phosphorylation” value in data set [5] is recorded as 12.7 mg/kg. Further, the “effect on erythroid progenitors, reticulocytes or platelets” value in data set [6] (in vivo) is listed as “no effect”. Further, the “TED50 reduction of Ba/F3-JAK2V617F-GFP tumor burden” value in data set [6] (twice daily) is 13.7 mg/kg.

Take `C[C@@H](Oc1ccc2[nH]nc(/C=C/c3cnn(CCO)c3)c2c1)c1c(Cl)cncc1Cl` [LY2874455, (R)-(E)-2-(4-(2-(5-(1-(3,5-Dichloropyridin-4-yl)ethoxy)-1H-indazol-3-yl)vinyl)-1H-pyrazol-1-yl) ethanol]: the “in vitro and in vivo selectivity on inhibition of FGF-over VEGF-mediated target signaling” value in data set [7] is reported as 6- to 9 fold.

Take `COc1cccc(OCCCN)c1-c1cc(Nc2cnc(C#N)cn2)n[nH]1` [LY2606368, 5-((5-(2-(3-aminopropoxy)-6-methoxyphenyl)-1H-pyrazol-3-yl)amino)pyrazine-2-carbonitrile]: the IC50 in the data set on SW1990 was 1.5 nM. In [8], the “inhibition of metastasis to lymph node, spleen, and intestine” value is recorded as 100%; the “inhibition of primary tumor growth” value is recorded as “over 92%”.

As to `CC(C)(C)Cn1c(N)nc2ccc(-c3[nH]c(C(C)(C)C)nc3-c3ccc(F)cc3)nc21` [LY2228820, 5-[2-tert-Butyl-4-(4-fluorophenyl)-1H-imidazol-5-yl]-3-(2,2-dimethylpropyl)-3H-imidazo[4,5-b]pyridin-2-amine dimethanesulfonate], the IC50 on p38α MAPK (in vitro, read-out: IC50 α isoform of p38 MAPK) is 5.3 nM; on β isoform of p38 MAPK, 3.2 nM; in [9], 8.1 nM; in [10] it was 35.3 nM; in the data set with TNFα secretion, 6.3 nM. Also, the “selectivity for p38α MAPK versus 179 other kinases tested” value at p38α MAPK (including p38δ and γ isoforms) was greater than 1000 fold. In the data set on phospho-MK2 (mice transplanted with B16-F10 melanomas), the “TMED70 phospho-MK2 inhibition in tumors” value is given as 19.4 mg/kg. Besides, in the data set on phospho-MK2 (single 10 mg/kg oral dose), the “duration of significant target inhibition” value is 4 to 8 h. Moreover, the “inhibition of phospho-MK2” value in the data set with phospho-MK2 (single 10 mg/kg oral dose) was greater than 40%.

For the molecule `CC(C)c1cc(-c2nnc(O)n2-c2ccc3c(ccn3C)c2)c(O)cc1O` [ganetespib], the concentration of ganetespib in tumor in data set [11] (5 min after 50 mg/kg IV) stood at 2350 nM. The “mean concentration in plasma relative to RBC” value in data set [11] (5 min time point) is “about 10 times”. Further, in [11] (24 hr after 50 mg/kg IV), the “Concentration of ganetespib in plasma” value is on record as “>LLOQ”. Further, the IC50 with HER2 [12] is roughly 30 nM.
